Columns and labels:
[1] = tested on: Coniophora puteana (Cp); assay: Antifungal agar-plate method; type: cell-based; conditions: Coniophora puteana, read-out: Antifungal activity (inhibition of mycelial growth); for inhibition of growth at 0.0001 %: concentration 0.0001%; for inhibition of growth at 0.001 %: concentration 0.001%; for inhibition of growth at 0.01 %: concentration 0.01%; for inhibition of growth at 0.1 %: concentration 0.1%
Method: (§1) Fungal strains: Coriolus versicolor (Cv), Poria placenta (Pp), Coniophora puteana (Cp) and Gloeophyllum trabeum (Gt) were used as a test organism for the experimental determination of the antifungal activity of 1–11. The fungus were obtained from the collection of the Department of Wood Chemical Technology, Faculty of Forestry and Wood Technology, Poznań, University of Life Sciences, Poland. The fungal growth rates were measured in 90 mm-diameter plastic dishes using the agar-plate method, described by Ważny and Thorton. Five concentrations of gramine and its derivatives in the range of 0.1% to 0.00001% were studied. The compound was applied on the agar (2% agar and 5% malt-extract) prepared on the Petri dish and previously autoclaved. The combination of the compound and fungus was repeated three times. Given sample was centrally inoculated with a 5 mm diameter disc taken from the submargin of 5-day-old malt agar plates. The plates were incubated in darkness at 21 ± 2 °C and 70 ± 5% relative air humidity. The growth duration was determined by the total coverage of the reference plate. The radius of the area covered by the fungus compared with the reference agar plate was employed to calculate the effective doses, ED50, of preservative concentrations retarding the fungal growth rate by 50%.

[2] = tested on: Gloeophyllum trabeum (Gt); assay: Antifungal agar-plate method; type: cell-based; conditions: Gloeophyllum trabeum, read-out: Antifungal activity (inhibition of mycelial growth); for inhibition of growth at 0.0001 %: concentration 0.0001%; for inhibition of growth at 0.001 %: concentration 0.001%; for inhibition of growth at 0.01 %: concentration 0.01%; for inhibition of growth at 0.1 %: concentration 0.1%
Method: as §1

[3] = tested on: Poria placenta (Pp); assay: Antifungal agar-plate method; type: cell-based; conditions: read-out: Antifungal activity (inhibition of mycelial growth); for inhibition of growth at 0.0001 %: concentration 0.0001%; for inhibition of growth at 0.001 %: concentration 0.001%; for inhibition of growth at 0.01 %: concentration 0.01%; for inhibition of growth at 0.1 %: concentration 0.1%
Method: as §1

[4] = tested on: Coriolus versicolor (Cv); assay: Antifungal agar-plate method; type: cell-based; conditions: Trametes versicolor, read-out: Antifungal activity (inhibition of mycelial growth); for inhibition of growth at 0.0001 %: concentration 0.0001%; for inhibition of growth at 0.001 %: concentration 0.001%; for inhibition of growth at 0.01 %: concentration 0.01%; for inhibition of growth at 0.1 %: concentration 0.1%
Method: as §1

[5] = tested on: Escherichia coli; assay: Antibacterial well-diffusion method; type: cell-based; conditions: 0.1 mL of compound in DMSO, 48 h, 37 °C
Method: (§2) The antimicrobial properties of compounds were determined against selected bacteria: Micrococcus luteus, Bacillus subtilis, Escherichia coli and Pseudomonas fluorescens which came from the collection of Pure Cultures of the Facility of Microbiology of the Department of Soil Science and Microbiology of the Poznan University of Life Sciences. The well-diffusion method was used to evaluate the antimicrobial properties of compounds. 6 mL each of liquidized broth medium was poured into sterile Petri dishes and allowed to solidify. After which, two sterile glass rings with a diameter of 0.5 cm were placed on the surface of each plate. Then 20 mL each of liquid broth medium containing suspensions of the tested bacterial strains at a density of 10^7 cells/cm3, obtained from 48-h cultures on broth […], was introduced. After the medium solidified, the glass rings were removed with a pencil, obtaining two wells on each plate. 0.1 mL of compound dissolved in pure dimethyl sulphoxide was introduced into one well, and 0.1 mL of pure dimethyl sulphoxide was introduced into the other well, which was as a control. Each compound was tested in four replicates. The plates were incubated for 48 h in a thermostat at 27 °C for M. luteus, B. subtilis and P. fluorescens cultures, and the E. coli culture at 37 °C. At the end of the incubation, the diameters of growth inhibition of the tested strains were measured using calipers.

[6] = tested on: Pseudomonas fluorescens; assay: Antibacterial well-diffusion method; type: cell-based; conditions: 0.1 mL of compound in DMSO, 48 h, 27 °C
Method: as §2

[7] = tested on: Micrococcus luteus; assay: Antibacterial well-diffusion method; type: cell-based; conditions: Micrococus luteus, 0.1 mL of compound in DMSO, 48 h, 27 °C
Method: as §2

[8] = tested on: Bacillus subtilis; assay: Antibacterial well-diffusion method; type: cell-based; conditions: 0.1 mL of compound in DMSO, 48 h, 27 °C
Method: as §2

[9] = tested on: human red blood cells (RBC); assay: Hemolysis assay under the compounds tested; type: cell-based; conditions: 0.1 mg/mL, 60 min, 37 °C, PBS pH 7.4
Method: The erythrocytes were washed three times (3000 rpm, 10 min, +4 °C) in 7.4 pH phosphate buffered saline (PBS: 137 mM NaCl, 2.7 mM KCl, 10 mM Na2HPO4, 1.76 mM KH2PO4) supplemented with 10 mM glucose. After washing, RBC were suspended in the PBS buffer at 1.65 × 10^9 cells/mL, stored at +4 °C, and used within 5 h.
The cytotoxic activity of the compounds tested was determined by a standard hemolytic assay according to Mrówczyńska and Hägerstrand [57]. Briefly, RBC (1.65 × 10^8 cells/mL, ~1.5% hematocrit) were incubated in PBS buffer (7.4 pH) supplemented with 10 mM glucose and containing compounds tested (0.1 mg/mL) for 60 min at 37 °C in a shaking water bath. Samples with RBC incubated in PBS without compounds tested were taken as the control. Each sample was repeated three times, and the experiments were repeated 3 times with RBC from different donors. After incubation, the RBC suspensions were centrifuged (3000 rpm, 10 min), and the degree of hemolysis was estimated by measuring the absorbance (Ab) of the supernatant at 540 nm. The results were expressed as a percentage (%) of hemolysis which was determined using the following equation:Hemolysis (%) = (sample Ab/positive control Ab) × 100% were positive control is Ab of supernatant of RBC in ice-cold H2O.

[10] = Ferrous ions (Fe2+) chelating activity (ferrozine); conditions: 0.1 mg/mL, 10 min, room temperature
Method: Ferrous ions (Fe^2+) chelating activity was evaluated by inhibition of the formation of Fe^2+-ferrozine complex after incubation of the compounds tested with Fe^2+. The Fe^2+-chelating ability of compounds tested was determined by the absorbance of the ferrous ion-ferrozine complex at 562 nm. In brief, 0.1 mg/mL concentration of the compounds tested in 0.2 mL ethyl alcohol were added to a solution of 0.6 mM FeCl2 (0.05 mL). EDTA (ethylenediaminetetraacetic acid) was used as the standard EDTA chelating agent. The reaction was started by the addition of 5 mM ferrozine (0.05 mL) in ethyl alcohol and shaken vigorously immediately. The samples were stored for 10 min at room temperature (~22 °C). Following incubation, the absorbance (Abs) of the solutions was measured at 562 nm in a spectrophotometer. The percentage of inhibition of ferrozine—Fe^2+ complex formation was calculated using the equation: Fe^2+ chelating effect (%) = [1 − (Abs1/Abs0)] × 100% where Abs0 is the absorbance of the sample without the tested compound and Abs1 is the absorbance in the presence of the compound tested. Each sample was made in triplicate, and three independent experiments were performed.

Row | SMILES | inhibition of growth at 0.0001 % [1] [%] | inhibition of growth at 0.001 % [1] [%] | inhibition of growth at 0.01 % [1] [%] | inhibition of growth at 0.1 % [1] [%] | inhibition of growth at 0.0001 % [2] [%] | inhibition of growth at 0.001 % [2] [%] | inhibition of growth at 0.01 % [2] [%] | inhibition of growth at 0.1 % [2] [%] | inhibition of growth at 0.0001 % [3] [%] | inhibition of growth at 0.001 % [3] [%] | inhibition of growth at 0.01 % [3] [%] | inhibition of growth at 0.1 % [3] [%] | inhibition of growth at 0.0001 % [4] [%] | inhibition of growth at 0.001 % [4] [%] | inhibition of growth at 0.01 % [4] [%] | inhibition of growth at 0.1 % [4] [%] | melting point [°C] | Zone of Growth Inhibition [5] [mm] | Zone of Growth Inhibition [6] [mm] | Zone of Growth Inhibition [7] [mm] | other results
1 | Cc1nccn1Cc1c[nH]c2ccccc12 [Compound 3, 3-((2-methyl-1H-imidazol-1-yl)methyl)-1H-indole] | 0 | 0 | 48 | 100 | 15 | 19 | 44 | 100 | 0 | 0 | 48 | 100 | 0 | 1 | 35 | 100 | 173 to 174 | 1 | 16 | 3 | Zone of Growth Inhibition [8]: 1 mm; Hemolytic activity [9]: 3.6%
2 | c1ccc2c(c1)ncn2Cc1c[nH]c2ccccc12 [Compound 9, 1-((1H-indol-3-yl)methyl)-1H-benzo[d]imidazole] | 0 | 0 | 40 | 100 | 17 | 28 | 48 | 100 | 0 | 23 | 37 | 100 | 0 | 6 | 44 | 100 | 214 to 216 | 3 | 0 | 4.3 | Zone of Growth Inhibition [8]: 2.7 mm; Chelating activity [10]: 4%; Hemolytic activity [9]: 23%
3 | S=c1sc2ccccc2n1Cc1c[nH]c2ccccc12 [Compound 10, 3-((1H-indol-3-yl)methyl)benzo[d]thiazole-2(3H)-thione] | 0 | 40 | 57 | 100 | 0 | 38 | 59 | 100 | 34 | 54 | 71 | 100 | 0 | 20 | 49 | 100 | 187 to 190 | 1 | 0 | 2.6 | Zone of Growth Inhibition [8]: 0 mm; Chelating activity [10]: 12%
4 | S=c1oc2ccccc2n1Cc1c[nH]c2ccccc12 [Compound 11, 3-((1H-indol-3-yl)methyl)benzo[d]oxazole-2(3H)-thione] | 0 | 43 | 44 | 100 | 17 | 39 | 47 | 100 | 0 | 56 | 64 | 100 | 0 | 2 | 26 | 100 | 157 to 159 | 2.7 | 0 | 4 | Zone of Growth Inhibition [8]: 0 mm; Chelating activity [10]: 29%

From article PMC9867442, “Indole Derivatives Bearing Imidazole, Benzothiazole-2-Thione or Benzoxazole-2-Thione Moieties—Synthesis, Structure and Evaluation of Their Cytoprotective, Antioxidant, Antibacterial and Fungicidal Activities” (Molecules, 2023)
